Patent publication EP1718648B1, “TRICYCLIC IMIDAZOPYRIDINES AND INTERMEDIATES FOR THE SYNTHESIS THEREOF” (Nycomed GmbH, priority 2004, dated 2005)

The compounds below were run on pentagastrin-stimulated acid secretion of the perfused rat stomach (assay: Testing of the secretion-inhibiting action on the perfused rat stomach). Details: Dose 1.0 µmol/kg i.d. (intraduodenal), in vivo; anesthetized CD rat, female; pentagastrin 1 µg/kg i.v. continuous infusion.
Text: The compounds of the formula 2 according to the invention investigated in the model mentioned below have been provided with letters which correspond to the letters of these compounds in the examples.
In Table A which follows, the influence of the compounds of the formula 2 according to the invention on the pentagastrin-stimulated acid secretion of the perfused rat stomach after intraduodenal administration in vivo is shown. Table A
The abdomen of anesthetized rats (CD rat, female, 200-250 g; 1.5 g/kg i.m. urethane) was opened after tracheotomy by a median upper abdominal incision and a PVC catheter was fixed transorally in the esophagus and another via the pylorus such that the ends of the tubes just projected into the gastric lumen. The catheter leading from the pylorus led outward into the right abdominal wall through a side opening.
After thorough rinsing (about 50-100 ml), warm (37°C) physiological NaCl solution was continuously passed through the stomach (0.5 ml/min, pH 6.8-6.9; Braun-Unita I). The pH (pH meter 632, glass electrode EA 147; φ = 5 mm, Metrohm) and, by titration with a freshly prepared 0.01 N NaOH solution to pH 7 (Dosimat 665 Metrohm), the secreted HCl were determined in the effluent in each case collected at an interval of 15 minutes.
The gastric secretion was stimulated by continuous infusion of 1 µg/kg (=1.65 ml/h) of i.v. pentagastrin (left femoral vein) about 30 min after the end of the operation (i.e. after determination of 2 preliminary fractions). The substances to be tested were administered intraduodenally in a 2.5 ml/kg liquid volume 60 min after the start of the continuous pentagastrin infusion.
The body temperature of the animals was kept at a constant 37.8-38°C by infrared irradiation and heat pads (automatic, stepless control by means of a rectal temperature sensor).

SMILES | Inhibition of acid secretion (%)
CNC(=O)c1cn2c(C)c(C)nc2c2c1CCC(c1ccccc1)N2 (stereo not drawn) [c, 2,3-Dimethyl-8-phenyl-6,7,8,9-tetrahydro-1,3a,9-triaza-cyclopenta[a]naphthalene-5-carboxylic Acid Methylamide] | > 50
Cc1nc2c3c(c(C(=O)N(C)C)cn2c1C)CCC(c1ccccc1)N3 (stereo not drawn) [e, 2,3-Dimethyl-8-phenyl-6,7,8,9-tetrahydro-1,3a,9-triaza-cyclopenta[a]naphthalene-5-carboxylic Acid Dimethylamide] | > 50
Cc1nc2c3c(c(C(N)=O)cn2c1C)CCC(c1ccccc1)N3 (stereo not drawn) [f, 2,3-Dimethyl-8-phenyl-6,7,8,9-tetrahydro-1,3a,9-triaza-cyclopenta[a]naphthalene-5-carboxylic Acid Amide] | > 50
Cc1nc2c3c(c(C(=O)N4CCCC4)cn2c1C)CCC(c1ccccc1)N3 (stereo not drawn) [h, 1-(2,3-Dimethyl-8-phenyl-6,7,8,9-tetrahydro-1,3a,9-triaza-cyclopenta[a]naphthalen-5-yl)-1-pyrrolidin-1-yl-methanone] | > 50
Cc1nc2c3c(c(C(=O)N(C)C)cn2c1C)CC[C@@H](c1ccccc1)N3 [j, (8S)-2,3-Dimethyl-8-phenyl-6,7,8,9-tetrahydro-1,3a,9-triaza-cyclopenta[a]naphthalene-5-carboxylic Acid Dimethylamide] | > 50
Cc1nc2c3c(c(C(=O)N(C)C)cn2c1C)CC[C@H](c1ccccc1)N3 [k, (8R)-2,3-Dimethyl-8-phenyl-6,7,8,9-tetrahydro-1,3a,9-triaza-cyclopenta[a]naphthalene-5-carboxylic Acid Dimethylamide] | < 50
CNC(=O)c1cn2c(C)c(C)nc2c2c1CC[C@H](c1ccccc1)N2 [l, (8R)-2,3-Dimethyl-8-phenyl-6,7,8,9-tetrahydro-1,3a,9-triaza-cyclopenta[a]naphthalene-5-carboxylic Acid Methylamide] | < 50
CNC(=O)c1cn2c(C)c(C)nc2c2c1CC[C@@H](c1ccccc1)N2 [m, (8S)-2,3-Dimethyl-8-phenyl-6,7,8,9-tetrahydro-1,3a,9-triaza-cyclopenta[a]naphthalene-5-carboxylic Acid Methylamide] | > 50
Cc1nc2c3c(c(C(=O)NC4CC4)cn2c1C)CC[C@H](c1ccccc1)N3 [n, (8R)-2,3-Dimethyl-8-phenyl-6,7,8,9-tetrahydro-1,3a,9-triaza-cyclopenta[a]naphthalene-5-carboxylic Acid Cyclopropylamide] | < 50
Cc1nc2c3c(c(C(=O)NC4CC4)cn2c1C)CC[C@@H](c1ccccc1)N3 [o, (8S)-2,3-Dimethyl-8-phenyl-6,7,8,9-tetrahydro-1,3a,9-triaza-cyclopenta[a]naphthalene-5-carboxylic Acid Cyclopropylamide] | > 50
Cc1nc2c3c(c(C(N)=O)cn2c1C)CC[C@H](c1ccccc1)N3 [p, (8R)-2,3-Dimethyl-8-phenyl-6,7,8,9-tetrahydro-1,3a,9-triaza-cyclopenta[a]naphthalene-5-carboxylic Acid Amide] | < 50
Cc1nc2c3c(c(C(N)=O)cn2c1C)CC[C@@H](c1ccccc1)N3 [q, (8S)-2,3-Dimethyl-8-phenyl-6,7,8,9-tetrahydro-1,3a,9-triaza-cyclopenta[a]naphthalene-5-carboxylic Acid Amide] | >50
